This assay concerns Erwinia amylovara. The assay is described as follows: Measuring the efficiency against fire blight on inoculated apple blossoms. The assay is classed as in vivo. The settings on record: 0.06 % by weight in water (positive control); apple blossoms sprayed 1 h after inoculation, 6 days, vs water control. The procedure:
For measuring the efficiency of the aqueous compositions, 24 blossoms of the apple varieties Braeburn, Jona Gold and Gala are placed in sugar solution and inoculated with a suspension of Erwinia amylovara at 10^6 bacterial cells. One hour after inoculation, the blossoms are sprayed, respectively, with the composition to be tested or with water, serving as a negative control, until completely wetted. These blossoms are incubated for 6 days at 20 to 23° C. and at a relative humidity of 100%.
The efficiency specifies the decrease of infested blossoms utilizing the composition to be tested in comparison to blossoms, which were treated with water only. All tests are conducted three to six times, and from the measured data the empirical mean of the efficiency, as well as the empirical standard deviation σ are calculated, whereby the standard deviation σ represents […] of the data from the arithmetic mean of the efficiency.

Where “and” joins values, the source holds several entries; their conditions need not be identical. Equal values may be shown once.

On to `[H]/N=C(/N)N[C@H]1[C@H](O)[C@@H](O)[C@H](O[C@@H]2O[C@@H](C)[C@](O)(C=O)[C@H]2O[C@@H]2O[C@@H](CO)[C@H](O)[C@@H](O)[C@@H]2NC)[C@@H](N/C(N)=N\[H])[C@@H]1O` [streptomycin], for which the mean of efficiency was 74% and 70% and 75%.

The values are drawn from US9149043B2, “Compositions and method for preventing and treating fire blight” (priority 2009, dated 2015).
